The results in this text go back to patent US20130261142A1, “COMPOUNDS USED FOR TREATING CANCER AND THE USE THEREOF” (priority 2010, published 2013).

Entries after “also recorded” stand apart in the source; their conditions may differ.

Experiment [1] concerns OVCA sps cells. As to the kind of experiment: LOPAC compounds tested on OVCA sps cells, MTS / ATP-based assay (Table 3). Format: cell-based. To be noted: proliferation and differentiation. The protocol:
CP70 sps cells were seeded in a 96-well culture plate (1×10^3 cells/well) and cultured for 24 hr, and then treated with 30 μM of various compounds selected from the LOPAC database. Following 3-day treatment, the vitality of the treated cells was measured by CellTiter-Glo® Luminescent Cell Vitality Assay kit (Promega) according to the manufacturer's instructions.
(§1) The vitality of the treated cells was measured by MTS assay using MTS-based CellTiter 96 aqueous non-radioactive cell proliferation assay kit (Promega) according to the manufacturer's instructions.

The test system of experiment [2] is CP70 sps cells. The experiment can be described thus: Cytotoxicity / vitality of CP70 sps cells (MTS assay). The settings on record: FIG. 14 / FIG. 15. The protocol: as §1
The vitality of the CP70 sps cells was measured by MTS assay. For preclinical test, two groups with five mice each were i.p. injected with 1×10^4 of CP70 sps cells alone or followed by Niclosamide treatment (10 mg/kg/daily) from day 1 to day 47, respectively. The body weights of the two groups of mice were monitored every 3 days during day 36 to day 48. After 48 days, the mice were sacrificed to examine the tumor nodules formation in the abdominal cavity.
On the technique in general: Tetrazolium dyes change colour on reduction, which living cells bring about.

For experiment [3], the system named is Cyclin D1. The experiment can be described thus: Protein expression in Niclosamide-treated MCF-7 sps cells: Cyclin D1. It is filed as cell-based. The settings on record: MCF-7 sps cells treated with Niclosamide.
The subject of experiment [4] is Hes-1. The experiment can be described thus: Protein expression in Niclosamide-treated MCF-7 sps cells: Hes-1. Format: cell-based. To be noted: MCF-7 sps cells treated with Niclosamide.
Experiment [5] has as its system PTCH. The experiment can be described thus: Protein expression in Niclosamide-treated MCF-7 sps cells: PTCH. Format: cell-based. The settings on record: MCF-7 sps cells treated with Niclosamide.
For experiment [6], the system named is OCT4. The experiment can be described thus: Flow cytometry of OCT4 in MCF-7 sps cells. To be noted: 5 μM. Format: cell-based. In general terms: A flow cytometer gives signals particle by particle.
For experiment [7], the system named is MDA-MB 231 cells. As to the kind of experiment: Inhibition of MDA-MB 231 cells. The settings on record: 3 μM. Format: cell-based, human.
For experiment [8], the system named is MDA-MB231 SPS cells. The experiment can be described thus: Survival of MDA-MB231 SPS cells. It is filed as cell-based, human. To be noted: following Niclosamide treatment.
Experiment [9] relates to MCF-7 sps cells. As to the kind of experiment: MCF-7 sps tumors in NOD/SCID mice. To be noted: MCF-7 sps cells in NOD/SCID mice, 5 μM Niclosamide. It is filed as in vivo.
Experiment [10] deals with CP70 sps cells. As to the kind of experiment: CP70 sps tumors in NOD/SCID mice (preclinical test). Format: in vivo.
Procedure: For preclinical test, two groups with five mice each were i.p. injected with 1×10^4 of CP70 sps cells alone or followed by Niclosamide treatment (10 mg/kg/daily) from day 1 to day 47, respectively. […] After 48 days, the mice were sacrificed to examine the tumor nodules formation in the abdominal cavity.
For experiment [11], the system named is OVCICs sps cells collected from ovarian cancer patient(s). The experiment can be described thus: Patients' OVCA specimen-derived cells (pdOVCICs / OVCICs sps), MTS assay. The settings on record: in vitro. It is filed as cell-based, human. As for the experimental part:
A total of 5000 pdOVCICs were seeded onto each well in 96-well plates and each plate was treated with different concentrations of Niclosamide in duplicates for 3 days. The vitality of pdOVCICs cells was measured by MTS assay.

Experiment [12] has as its system MCF-7 SPS cells. As to the kind of experiment: LOPAC compounds tested on MCF-7 SPS cells (Table 2). The settings on record: Compounds that inhibit cancer stem cells, 3 μM stated for Niclosamide.
Source text: (§2) The morphology and number of the spheroids were further analyzed by software image pro plus.
The test system of experiment [13] is MCF-7 SPS cells. The experiment can be described thus: MCF-7 SPS spheroid proliferation and differentiation.
Source text: as §2

As for `O=C(Nc1ccc([N+](=O)[O-])cc1Cl)c1cc(Cl)ccc1O` [Niclosamide], the “Cancer cell survival (%)” value in experiment [1] came to 34.86%; in experiment [12] it was 1.4%. Further, the “numbers of ovarian cancer stem cells in CP70 SPS cell culture in vitro” value in experiment [2] is recorded as “inhibited”. Also, the “inhibition of Cyclin D1 expression” value in experiment [3] came to 57.4%. Further, the “inhibition of Hes-1 expression” value in experiment [4] is on record as 33.1%. Moreover, the “inhibition of PTCH expression” value in [5] came to 79.2%. In experiment [6], the “expression of OCT4” value is recorded as “higher expression”. Further, the “inhibition of MDA-MB 231 cells” value in [7] was “significantly inhibited”. The “survival of MDA-MB231 SPS cells” value in experiment [8] is reported as “negatively correlated with the treatment”. Moreover, the “sizes and weights of the tumors vs untreated mice” value in experiment [9] is “smaller and lighter”; in experiment [10] (CP70 sps cells in NOD/SCID mice, 5 μM Niclosamide), “significantly different; also recorded: smaller and lighter”. Moreover, the “inhibition on cancer stem cells in pre-clinical ovarian cancer studies” value in experiment [10] (mouse, in vivo) is recorded as “successful inhibition”. Moreover, the “numbers of ovarian cancer cells in the tumors” value in experiment [10] (tumors from Niclosamide-treated animals (FIG. 13B)) was “inhibited”. Also, in [11], the “differentiation and growth of ovarian cancer cells” value was “successfully inhibited”. Also, the “inhibition of MCF-7 sps cells” value in experiment [13] (3 μM) was “significantly inhibited”. For the same compound, in [13] (MCF-7 SPS, 3 μM and 30 μM for 48 hr), the “proliferation and differentiation of the spheroid” value is given as “efficiently inhibit”. Also, the “differentiation and proliferation / formation of MCF-7 SPS cells” value in experiment [13] (concentration not given) is given as “inhibit the formation; also recorded: significantly inhibited”.
